Reference: US9095573B2, “Method of biasing implanted human neural stem cells away from differentiation into glial cells by (+)phenserine to modulate the concentration of soluble βAPP in tissue or CSF” (priority 2005, dated 2015)

Assays:
[1] = system: transplanted human neural stem cells (HNSCs); assay: Neuronal differentiation of transplanted HNSCs (BrdU+/β-III tubulin+ cell counts, fluorescent immunohistochemistry); format: in vivo, APP23 and wild-type mice; details: wild-type mice, CA1 hippocampal region only; p<0.05; 25 mg/kg
Protocol: (§1) HNSCs originally isolated from fetal cortical tissue were purchased from BioWhittaker (Walkersville, Md.) and the cells were expanded and passaged in a serum-free culture medium, as described in detail previously (Brannen and Sugaya, 2000). Briefly, HNSCs were cultured in 20 ml serum-free supplemented growth medium consisting of Ham's F12/DMEM (Gibco, Burlington, ON), EGF (20 ng/ml, R & D Systems), FGF (20 ng/ml, R & D Systems, Minneapolis, Minn.), B27 (1:50, Gibco), heparin (5 μg/ml, Sigma, St. Louis, Mo.) and antibiotic-antimycotic mixure (1:100, Gibco) at 37° C. in a 5% humidified incubation chamber (Brannen and Sugaya, 2000). Prior to transplantation, HNSCs were incubated with 3 μM bromo-deoxyuridine (BrdU, Sigma) for 48 hr to label cell nuclei to distinguish them from the host cells.
(§2) Animals were subsequently divided into two groups that were either sacrificed following 14 days treatment (n=17 APP23 and n=13 wild-type, respectively) or received transplantation of HSNC into the lateral ventricle (n=13 APP23 mice and n=12 wild-type, respectively). […] Brains were removed, dissected into the hippocampus and cortex, and tissue samples were maintained on dry ice and stored at −80° C. until Western blotting and PCR experiments were performed. For the group of transplanted animals, these were transcardially perfused with PBS and 4% paraformaldehyde (pH 7.4). […]

[2] = system: transplanted human neural stem cells (HNSCs); assay: Glial differentiation of transplanted HNSCs (BrdU+/GFAP+ cell counts, fluorescent immunohistochemistry); format: in vivo, APP23 and wild-type mice; details: hippocampus of wild-type mice; 6 weeks after HNSC transplantation; 25 mg/kg
Protocol: as §1, §2

cholinesterase = details: Greig et al., U.S. Patent Pub. 2004/0024043 and 2004/0138282; cited from earlier work
APP mRNA = assay: Real time RT-PCR analysis of APP gene expression in cortical and hippocampal tissues; format: in vivo; details: both APP23 and wild-type mice
Protocol: as §2, with “7.4). Brains were removed and post-fixed for 8-12 h in 4% paraformaldehyde, and cryoprotected in 20% sucrose-PBS overnight.” for “7.4).”
Total RNA from hippocampal and cortical tissues from each animal treated with either (+)-phenserine or saline was isolated with Trizol reagent (Invitrogen) according to the manufacturer's protocol. […] Relative quantification with Real-time PCR was determined using the MyiQ Real-Time PCR Detection System Software (Bio-Rad), and reactions were performed in a thermal iCycler using the Bio-Rad MyiQ IQ SYBR Green Supermix (Bio-Rad) according to the following conditions; denaturation of cDNA for 5 min at 94° C.; amplification (40 cycles) for 30 sec at 94° C., annealing at 56° C. for 30 sec, and extension at 72° C. for 30 sec, with a final extension at 72° C. for 5 min. […]

## (+)-phenserine
[1]
  increase in number of BrdU+/β-III tubulin+ cells: 40%
[2]
  difference in number of BrdU+/GFAP+ double immuno-positive cells: No significant differences
cholinesterase
  cholinesterase activity: lacks cholinesterase activity
APP mRNA
  change in APP gene expression: no significant changes
